Assay results from ChEMBL document CHEMBL1148105, “Bioactive metabolites from a marine-derived strain of the fungus Emericella variecolor” (2002).
In brackets after ≈: the same amount, converted by molar mass.

What was measured:
Assay type in all cases: functional
Enterococcus faecalis = experiment: Antimicrobial activity against Enterococcus faecalis
Bacillus subtilis = experiment: Antimicrobial activity against Bacillus subtilis
Staphylococcus aureus = experiment: Antimicrobial activity against Staphylococcus aureus
Escherichia coli = experiment: Antimicrobial activity against Escherichia coli
Proteus sp. = experiment: Antimicrobial activity against Proteus sp.; details: Proteus sp. (in: enterobacteria)

## C=C(C)[C@H]1COc2c(C)cc3oc4c(C[C@H](OC=O)C(C)(C)O)ccc(O)c4c(=O)c3c2[C@@H]1O [VARIXANTHONE]
Enterococcus faecalis
  MIC: 50 µg/mL (≈ 107 µM)
Bacillus subtilis
  MIC: 12.5 µg/mL (≈ 26.7 µM)
Staphylococcus aureus
  MIC: 12.5 µg/mL (≈ 26.7 µM)
Escherichia coli
  MIC: 12.5 µg/mL (≈ 26.7 µM)
Proteus sp.
  MIC: 12.5 µg/mL (≈ 26.7 µM)
